The record followed here is patent US11963939B2, “Use of N-acetylcysteine to treat central nervous system disorders” (Neuronasal, Inc., priority 2017, dated 2024).

The nature of assay [1]: Total iron levels in brain of ICH mice by X-ray fluorescence. The format is in vivo, mouse. To be noted: 7 days. From the text:
In vivo metal distribution imaging analysis by X-ray fluorescence: Seven days following collagenase-induced ICH, mice were euthanized and perfused with trace metal-free PBS. The brains were removed from the mice and flash frozen. Tissue samples were cut into 20 μm-thick sections and deposited onto 4 μm-thick Ultralene® films. The iron and zinc contents of the tissue samples were imaged using X-ray fluorescence microscopy (XFM). X-ray fluorescence spectra were collected using an X-ray excitation energy of 11 keV and a beam size of 9 μm (vertical)×17 μm (horizontal) in 15-μm steps, with an integration time of 7 sec/pixel. The intensity for each metal was quantified by integrating the area under the curve for the respective peak in the XRF spectrum (iron Kα=6405 eV and zinc Kα=8637 eV).
National Institute of Standards and Technology thin film standard reference materials 1832 and 1833 were used to calculate concentrations and to normalize for any differences between the multiple beam time runs required to collect the data. Molar concentrations were determined by dividing the […] values by the product of the volume of X-ray beam on the sample (area×thickness of the sample), the density of tissue (estimated to be 0.9 g/cm^3), and the molecular weight of the element.
The ability of NAC to affect total metal levels in the brain was evaluated. […]

Assay [2] deals with ALOX5. Nature of the assay: ALOX5 mRNA levels in hemin-treated primary cortical neurons (RT-PCR). The class given is cell-based, mouse. To be noted: NAC 1 mM. The method, then: (§1) Quantitative real-time PCR: Total RNA was prepared using a NucleoSpin® RNA II kit. Duplex real-time PCR reactions were performed with gene expression assays using 6-carboxyfluorescein-labeled probes for ALOX5 (Mm 01182747_m1) and ALOX5AP (Mm 01218551_m1). Expression levels were normalized to β-actin gene expression levels, which were determined with a VIC™-labeled probe. All experiments were performed using a real-time PCR system.
(§2) The abilities of hemin and NAC to induce increases in ALOX5 and ALOX AP mRNA levels were examined. […] Consistent with the protein data (FIG. 17), hemin induced increases in ALOX AP and ALOX5 mRNA levels in a time-dependent manner.

The subject of assay [3] is ALOX AP. Put plainly: ALOX AP mRNA levels in hemin-treated primary cortical neurons (RT-PCR). The class given is cell-based, mouse. To be noted: NAC 1 mM. The method, then: as §1, §2
In assay [4] the test system is lipid protein adducts. Put plainly: Hemin-induced lipid protein adduct formation (Bt-AA, streptavidin-HRP Western blot) in primary neurons. The class given is cell-based, mouse. The method, then:
Electrophilic attack by ALOX5 products could alter cellular protein-mediated signaling to trigger cell death. Arachidonic acid (AA) tagged with biotin (Bt-AA) was used to monitor the formation of covalent protein adducts. To test whether hemin was sufficient to catalyze the formation of protein-reactive lipid species, primary neurons were treated with hemin at concentrations of 5 μM-50 μM for 4 h. Lipid protein adducts were detected by Western blots probed with Streptavidin-HRP. Bt-AA incorporation into protein increased with increasing concentrations of hemin, and significant lipid protein adducts were detected at 50 μM hemin. […] The blot is representative from replicates of three experiments. The arrow indicates the decrease in lipid protein adduct formation.
(A western blot detects proteins with antibodies after separation by electrophoresis.)

The subject of assay [5] is Chac1. Put plainly: Chac1 gene expression in ICH mice by quantitative RT-PCR. The class given is in vivo, mouse. The conditions noted are these: ICH mice after NAC treatment. From the text:
Total glutathione levels were unchanged after NAC treatment in ICH mice. […] FIG. 29 illustrates an experimental design to study the effect of NAC on total glutathione levels in the striatum of a collagenase infusion mouse model of ICH. […] FIG. 31 illustrates that ICH-induced ATF4 dependent Chac1 degraded glutathione to 5-oxoproline.

On to `CC(=O)N[C@@H](CS)C(=O)O` [NAC, N-acetylcysteine], for which the “Iron levels and iron distribution in brain following ICH” value in assay [1] was “no effect on iron levels or iron distribution”. Further, in assay [2], the “Hemin-induced ALOX5 expression” value is “blocked the expression of ALOX5”. In assay [3], the “Hemin-induced ALOX AP expression” value was “blocked the expression of ALOX AP”. For the same compound, in assay [4] (non-protective doses: NAC 0.1 mM, vitamin E 1 μM, zileuton 1 μM), the AA-protein adduct formation entry is given as “did not decrease AA-protein adduct formation”. In addition, the “Lipid protein adduct formation” value in assay [4] (protective doses: NAC 1 mM, vitamin E 10 μM, zileuton 10 μM) is “decreased lipid protein adduct formation”. Also, in assay [5], the “ATF4-regulated Chac1” value is “decreased after NAC treatment”.
